Experimental data published in patent US5618726A, “Biodegradable azo dyes” (priority 1994, dated 1997).

Tests used:
[1] = system: lignin peroxidase (ligninase, LiP); test: Oxidation of azo dyes and veratryl alcohol by pure lignin peroxidase; format: biochemical, Phanerochaete chrysosporium; conditions: for Oxidation by ligninase after VA was added: with veratryl alcohol; for Oxidation by ligninase without VA: without veratryl alcohol
Protocol: Lignin peroxidase activity was determined spectrophotometrically at room temperature with VA as substrate. One unit (U) of enzyme activity was defined as 1 μmole of veratryl aldehyde formed-per-min at pH 3. Simultaneous oxidations of azo dyes and veratryl alcohol were measured using a Hewlett-Packard 8452 diode array spectrophotometer operated in the kinetic mode by a Vectra PC equipped with MS™-DO/UV-VIS software. Azo dye concentrations were determined by measuring absorbances at appropriate maxima.
After six days of growth, when the specific activity of ligninase reached about 250 U-per-liter, culture filtrates were separated from mycelial debris by filtration. One liter of culture filtrate was concentrated to about 10 ml using an Amicon PM-10 membrane and desalted in 10 mM sodium acetate buffer (pH 6) using a Sephadex G25 NAP10 column. Ligninase isoenzyme was separated from Mn-dependent peroxidases using a Pharmacia fast protein liquid chromatography system equipped with a Mono Q HR 5/5 column. In this study isoforms H2 and H8 were used.
In vitro studies were limited to dyes 24 and 28. […] FIGS. 6A and 7A show the simultaneous oxidation of azo dyes 24 and 28, respectively, and VA by ligninase. Without VA, azo dye oxidation was limited and terminated more rapidly than in the presence of VA (FIGS. 6B and 7B). When a dye was present in a reaction mixture, the rate of VA oxidation decreased due to an apparent competition for LiPI between these two compounds. The oxidation rate of VA recovered when the azo dye oxidation was completed (FIG. 8). The maximal rate of VA oxidation was about 159 AU (absorption change per-min-per-ml of ligninase solution). Wavelengths of 310 nm for VA, 506 nm for dye 24, and 430 nm for dye 28 oxidations were used in monitoring substrate removal. The oxidation of azo dyes is stimulated by VA in high (200 μM) and low (20 μM) H2 O2 concentrations.

[2] = system: Mn(II)-peroxidase; test: Oxidation of dyes by P. chrysosporium Mn(II)-peroxidase; format: biochemical, Phanerochaete chrysosporium; conditions: crude enzyme, conditions specific for Mn(II)-peroxidase
[3] = system: ligninase; test: Oxidation of dyes by P. chrysosporium ligninase (crude preparation); format: biochemical, Phanerochaete chrysosporium; conditions: crude enzyme, conditions specific for ligninase
Outline: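 Crude P. chrysosporium ligninase oxidation of dyes, assayed by a previously reported method; conditions as for acid yellow 9, readings every 30 s for up to 15 minutes.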

[4] = system: S. rochei A10; format: cell-based; conditions: streptomyces rochei a10 culture, 336 h
From the text: (§1) Microbiol., 1984, 130:2905-2913.
(§2) Replicate sterile controls also were run in each experiment.

[5] = system: S. diastaticus A13; format: cell-based; conditions: streptomyces diastaticus a13 culture, 336 h
From the text: as §1, §2

[6] = system: S. diastaticus A12; format: cell-based; conditions: streptomyces diastaticus a12 culture, 336 h
From the text: as §1, §2

[7] = molecular target: T1, horseradish peroxidase type II (Armoracia rusticana, UniProt P00433); test: Oxidation of azo dyes by horseradish peroxidase preparation; format: biochemical; conditions: pH 8, 37° C., H2O2
T1 sequence (P00433 31-338): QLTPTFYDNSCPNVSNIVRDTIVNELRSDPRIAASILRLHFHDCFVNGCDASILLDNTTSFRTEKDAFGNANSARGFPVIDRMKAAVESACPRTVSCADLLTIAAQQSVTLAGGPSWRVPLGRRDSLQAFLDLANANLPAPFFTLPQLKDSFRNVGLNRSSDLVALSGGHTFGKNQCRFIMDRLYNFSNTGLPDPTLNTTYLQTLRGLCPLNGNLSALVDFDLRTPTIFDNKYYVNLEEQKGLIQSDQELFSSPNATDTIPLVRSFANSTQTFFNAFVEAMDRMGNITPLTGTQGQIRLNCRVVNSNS
Protocol: The reaction was started with the addition of 100 μl of 50 mM H2 O2 and was followed for 1 min at 37° C. Controls were run with no addition of H2 O2 or with the addition of the hemeperoxidase inhibitor KCN (final concentration 25 μM).

[8] = system: Phanerochaete chrysosporium; test: Substrate removal / decolorization by P. chrysosporium culture; format: cell-based; conditions: for % Decolorization, P. chrysosporium: 14 days
Protocol: Environ. Microbiol., 1981, 42:290-296), with the addition of 75 mg adenine (6-aminopurine) and 27 mg L-phenylalanine-per-liter. This addition accelerated the growth of the fungus without inhibiting ligninase activity. […] […] Cultures were incubated at 37° C. for 7 to 15 days with shaking (250 rpm). Solid agar media were also employed.

[9] = system: S. chromofuscus A11; conditions: for Decolorization of growth medium by S. chromofuscus A11: both 50 and 100 ppm; for Degradation (%) after Streptomyces cultivation, strain A11: streptomyces chromofuscus a11 culture, 336 h
Protocol: as §1, §2
The Streptomyces were grown on the same media and under the same conditions as previously described. […] Thus, the spectrophotometric assays for substrates 1-12 were carried out at their specific isobastic points. Degradation was calculated as percent of substrates removed from culture broth, considering the evaporation factor (around 10%).

[10] = system: S. chromofuscus A11 extracellular peroxidase; test: Oxidation of azo dyes by S. chromofuscus A11 crude enzyme preparation; format: biochemical, Streptomyces chromofuscus A11; conditions: pH 8, 37° C., H2O2
Outline: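 Enzyme from 48 h S. chromofuscus A11 culture supernatant, concentrated, ammonium sulfate-precipitated, dialyzed in 20 mM HEPES pH 8; yellow Sephadex G-25 fraction used. Reaction started with 100 μl 50 mM H2O2, followed 1 min at 37° C; controls without H2O2 or with 25 μM KCN.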

[11] = system: P. chrysosporium ligninolytic culture; format: cell-based, Phanerochaete chrysosporium; conditions: ten days of growth; for Dye remaining in the cultures, HPLC / Dye remaining in the cultures, Spectrophotometry: initial 200 mg-per-liter; for Bleaching of cultures: 200 mg-per-liter
Protocol: Decolorization of dyes in cultures were monitored at their absorption maxima at pH 4.5, or using HPLC. A Spherisorb ODS2 C18 column was used for HPLC analysis with a sequence of DMS buffer at pH 4.5 and acetonitrile as solvents (5 min 100% DMS, 15 min 100% acetonitrile, 18 min 100% acetonitrile, 19 min 100% DMS, 20 min 100% DMS, 5 min postran 100% DMS). Peaks were monitored at 260 and 450 nm. Results from spectrophotometric and HPLC methods were compared.
The initial concentration of dye was 200 mg-per-liter. Numbers represent mg-per-liter of dye remaining in the cultures.

[12] = system: soil microflora; test: Degradation of azo dyes by soil microflora; format: cell-based; conditions: water from a soil sample
Protocol: The degradation of azo dyes by soil microflora in general was evaluated by forming a mixture of azo dyes 33 and 34 with water from a soil sample. The soil sample contained soil microflora that had not adapted to using azo dyes as substrates. A carbon source was added to the mixture and a continuous air flow through the mixture was maintained. The ^14 CO2 released by the mixture was trapped using a 1N NaOH.

[13] = beginning concentration 100 ppm
[14] = beginning concentration 150 ppm
[15] = beginning concentration 200 ppm
[16] = beginning concentration 300 ppm

SMILES | Oxidation rate of azo dyes, P. chrysosporium Mn-peroxidase [2] | Oxidation rate of azo dyes, P. chrysosporium Ligninase [3] | Degradation (%) after Streptomyces cultivation, strain A10 [4] | Degradation (%) after Streptomyces cultivation, strain A13 [5] | Degradation (%) after Streptomyces cultivation, strain A12 [6] | Oxidation rate of azo dyes, Horseradish peroxidase [7] | Concentration of substrate after ten days cultivation with P. chrysosporium [8, 13] | Concentration of substrate after ten days cultivation with P. chrysosporium [8, 14] | Concentration of substrate after ten days cultivation with P. chrysosporium [8, 15] | Concentration of substrate after ten days cultivation with P. chrysosporium [8, 16] | % Decolorization, P. chrysosporium ([8]; initial concn 150 ppm) | % Decolorization, P. chrysosporium ([8]; initial concn 300 ppm) | Degradation (%) after Streptomyces cultivation, strain A11 [9] | Oxidation rate of azo dyes, S. chromofuscus peroxidase [10] | further results
COc1ccc(CO)cc1OC [Veratryl alcohol, 3,4-dimethoxy benzyl alcohol, reference compound] |  |  |  |  |  |  |  |  |  |  |  |  |  |  | Maximal rate of VA oxidation by ligninase ([1]; absorption change per-min-per-ml of ligninase solution, 310 nm): about 159 AU
Cc1cc(N=Nc2ccc(S(=O)(=O)O)cc2)ccc1O [compound 5] | 3.54 μmoles per minute per ml | 0.00 μmoles per minute per ml | 9% | 8% | 3% | 11.94 μmoles per minute per ml | 6.084 ppm | 9.870 ppm | 14.500 ppm | 22.680 ppm | 90% | 87% | 20% | 2.00 μmoles per minute per ml | Decolorization of growth medium by S. chromofuscus A11 [9]: significantly decolorized
CCC(C)c1cc(N=Nc2ccc(S(=O)(=O)O)cc2)ccc1O (centres unmarked) [compound 10] | 2.86 μmoles per minute per ml | 0.51 μmoles per minute per ml | 11% | 6% | 7% | 0.35 μmoles per minute per ml | 8.135 ppm | 15.279 ppm | 46.588 ppm | 42.897 ppm | 90% | 92% | 16% | 0.78 μmoles per minute per ml | Decolorization of growth medium by S. chromofuscus A11 [9]: significantly decolorized
O=S(=O)(O)c1ccc(N=Nc2ccc(O)c(Cl)c2)cc1 [compound 13] | 0.26 μmoles per minute per ml | 0.88 μmoles per minute per ml | 2% | 1% | 1% | 0.10 μmoles per minute per ml | 7.734 ppm | 20.776 ppm | 28.216 ppm | 20.096 ppm | 92% | 88% | 5% | 0.13 μmoles per minute per ml | 
CCN(CC)c1ccc(N=Nc2ccc(S(=O)(=O)O)cc2)cc1 [compound 15] | 0.23 μmoles per minute per ml | 0.75 μmoles per minute per ml | 2% | 1% | 1% | 0.12 μmoles per minute per ml | 1.901 ppm | 10.589 ppm | 17.931 ppm | 17.791 ppm | 38% | 27% | 3% | 0.17 μmoles per minute per ml | 
O=S(=O)(O)c1ccc(N=Nc2ccc(N=Nc3c(O)ccc4ccccc34)c(S(=O)(=O)O)c2)cc1 [compound 24] |  |  |  |  |  |  |  |  |  |  |  |  |  |  | Dye remaining in the cultures, HPLC [11]: 4.43 mg-per-liter; Dye remaining in the cultures, Spectrophotometry [11]: 1.11 mg-per-liter; Bleaching of cultures [11]: completely bleached; Oxidation by ligninase after VA was added [1]: total decolorization; Oxidation by ligninase without VA [1]: limited extent
O=C(O)c1nn(-c2ccc(S(=O)(=O)O)cc2)c(O)c1N=Nc1ccc(S(=O)(=O)O)cc1 [compound 28] |  |  |  |  |  |  |  |  |  |  |  |  |  |  | Dye remaining in the cultures, HPLC [11]: 3.00 mg-per-liter; Dye remaining in the cultures, Spectrophotometry [11]: 2.42 mg-per-liter; Bleaching of cultures [11]: completely bleached; Oxidation by ligninase after VA was added [1]: total decolorization; Oxidation by ligninase without VA [1]: limited extent
Nc1ccc(N=N[14c]2[14cH][14cH][14c](S(=O)(=O)O)[14cH][14cH]2)cc1S(=O)(=O)O [compound 33] |  |  |  |  |  |  |  |  |  |  |  |  |  |  | Dye mineralized by soil microflora ([12]; 14CO2 trapped): 1.1%; Dye transformed by soil microflora ([12]; carbon source, air flow): 3.4%
